Consider three compounds from PMC9953308, “The Mechanism of Enantioselective Neurosteroid Actions on GABAA Receptors” (Biomolecules, 2023).

The target in experiment [1] is T1, α1β3 GABAA receptor (α1 subunit) (Homo sapiens, UniProt P14867).
T1 construct: gene GABRA1; human α1-8xHis-FLAG and human β3 GABAA receptor in HEK-T-Rex-293 membranes; with GABAA receptor β3 subunit (GABRB3)
T1 sequence (P14867 28-456): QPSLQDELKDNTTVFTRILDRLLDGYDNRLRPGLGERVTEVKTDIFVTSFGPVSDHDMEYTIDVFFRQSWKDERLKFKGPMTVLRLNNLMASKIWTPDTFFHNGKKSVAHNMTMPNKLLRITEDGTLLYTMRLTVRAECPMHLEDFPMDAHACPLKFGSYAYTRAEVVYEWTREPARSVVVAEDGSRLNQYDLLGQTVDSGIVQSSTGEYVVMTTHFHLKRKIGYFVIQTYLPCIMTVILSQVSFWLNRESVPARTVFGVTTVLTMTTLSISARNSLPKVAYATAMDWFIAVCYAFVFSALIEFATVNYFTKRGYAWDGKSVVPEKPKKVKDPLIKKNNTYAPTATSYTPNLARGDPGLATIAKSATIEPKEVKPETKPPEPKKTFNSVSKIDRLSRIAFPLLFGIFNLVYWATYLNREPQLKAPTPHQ
T1 sequence (P28472 26-473 partner): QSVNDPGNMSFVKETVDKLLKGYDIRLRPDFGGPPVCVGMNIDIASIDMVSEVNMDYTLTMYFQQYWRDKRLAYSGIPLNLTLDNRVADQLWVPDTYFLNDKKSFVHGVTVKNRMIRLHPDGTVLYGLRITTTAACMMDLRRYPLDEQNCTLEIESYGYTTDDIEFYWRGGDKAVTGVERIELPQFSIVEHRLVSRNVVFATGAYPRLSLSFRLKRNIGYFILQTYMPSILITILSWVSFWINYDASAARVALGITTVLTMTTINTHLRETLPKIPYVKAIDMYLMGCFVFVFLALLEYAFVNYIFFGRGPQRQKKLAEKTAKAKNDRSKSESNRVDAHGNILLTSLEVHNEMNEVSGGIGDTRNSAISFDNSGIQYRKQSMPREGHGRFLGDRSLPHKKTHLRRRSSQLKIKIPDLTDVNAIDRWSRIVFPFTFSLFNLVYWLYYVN
Nature of the experiment: photoaffinity labeling ([…]) with middle-down MS identification of adducted residue. It counts as binding.

For experiment [2], the target named is T2, α1β3 GABAA receptor (β3 subunit; β3-α1 intersubunit site) (Homo sapiens, UniProt P14867+P28472).
T2 construct: gene GABRB3; human α1-8xHis-FLAG and human β3 GABAA receptor in HEK-T-Rex-293 membranes; human α1β3 in Xenopus oocytes for EC50; with GABAA receptor α1 subunit (GABRA1)
T2 sequence (P28472 26-473): T1 sequence (P28472 26-473 partner)
T2 sequence (P14867 28-456): T1 sequence (P14867 28-456)
Nature of the experiment: competitive prevention of KK200/KK123 photolabeling with MS readout; EC50 from oocyte two-electrode voltage clamp (potentiation of GABA currents). It counts as cell-based. On the technique in general: In two-electrode clamp one electrode senses voltage and the other passes current.

For experiment [3], the target named is T2, α1β3 GABAA receptor (β3 subunit; β3-α1 intersubunit site). Nature of the experiment: competitive prevention of KK123 photolabeling with MS readout; EC50 from oocyte two-electrode voltage clamp (weak potentiation of GABA currents). It counts as cell-based.

SMILES strings stand for the structures.

Take `C#CCCO[C@@H]1C[C@@]2(C)[C@@H]3CC[C@]4(C)[C@H](CC[C@H]4OC)[C@H]3CC3(N=N3)[C@@H]2C[C@H]1O` [KK152]: the “photoaffinity labeling (30 μM) with middle-down MS identification of adducted re” value in experiment [1] is on record as “A fragmentation ion spectrum of this peptide identified Tyr415 as the site of KK152 adduction”. In general, EC50 refers to the concentration at which the effect is half-maximal. As for `CC(=O)[C@H]1CC[C@H]2[C@@H]3CC[C@H]4C[C@H](O)CC[C@]4(C)[C@H]3CC[C@]12C` [ALLO, 3α-hydroxy-5α-pregnan-20-one], the EC50 in experiment [2] was found to be 0.08 ± 0.01 µM.

In the case of `CC(=O)[C@@H]1CC[C@@H]2[C@H]3CC[C@@H]4C[C@@H](O)CC[C@@]4(C)[C@@H]3CC[C@]21C` [ent-ALLO, ent-allopregnanolone], in experiment [3], the EC50 came to 2 ± 0.3 µM.
